Laboratory results published in patent publication US4624954A, “6,7,8,9-tetrahydro-10-methylpyrido[1,2-a]indol-9-amines and derivatives thereof, useful for the treatment of cognitive impairments” (American Home Products Corporation, priority 1985, dated 1986).
Structures can show the parent of a compound that is named as a salt.

Test: Anoxia-induced lethality test in mice (survival in 100% nitrogen)
Format: in vivo, Male, CD-1 mice
Settings: Mus musculus, ip, 30 minutes prior to testing; 100% nitrogen for 80 seconds; read-out: ED50, protected from anoxia-induced lethality in mice
Text: To test the protective ability of the compounds of formula I against the physical consequences of anoxia, mice were exposed to an atmosphere of pure nitrogen which killed all of the animals. Intraperitoneal pretreatment of mice with the compounds of formula I protected them against this lethal effect.
ANOXIA-INDUCED LETHALITY TEST IN MICE
The anoxia-induced lethality test in mice evaluates the activity of drugs which protect the animal from deleterious effects of oxygen-lack, such as occurs in conditions of cerebral ischemia. Activity is measured as the survival rate in mice exposed to 100% nitrogen for 80 seconds, a procedure which is lethal to […] of untreated animals.
Test compounds are dissolved in water, or suspended in 0.2% aqueous Tween 80 and are administered i.p., 30 minutes prior to testing. Several doses and a vehicle control are tested, with 8 mice receiving each dose.
Male, CD-1 mice weighing 18-20 g are used. Mice are held separately within a cage in a modified plastic, air-tight desiccator which is connected to a tank of compressed 100% nitrogen gas.
Delivery of the anoxic gas is controlled by means of a toggle valve, and exposure is terminated by rapidly removing the mice from the desiccator. All operations are timed with a stopwatch. An ED50 value is determined from the percentage of mice which survive in each group. Drugs which reduce the anoxia-induced lethality solely by lowering body temperature are excluded.
With `Cc1c2n(c3ccccc13)CCCC2N(C)C.Cl` (stereo not drawn) [Example 3, 6,7,8,9-Tetrahydro-N,N,10-trimethylpyrido[1,2-a]indole-9-amine Hydrochloride] the ED50 was 13.5 mg/kg.

Same assay, conditions: Mus musculus, ip, read-out: ED50, protected from anoxia-induced lethality in mice
Compound `COc1ccc2c(C)c3n(c2c1)CCCC3N(C)C.Cl` (stereo not drawn) [Example 28, 6,7,8,9-Tetrahydro-3-methoxy-N,N,10-trimethylpyrido[1,2-a]indol-9-amine Hydrochloride] has an ED50 of 20 mg/kg. Compound `C#CCNC1CCCn2c1c(C)c1ccccc12.Cl` (stereo not drawn) [Example 7, 6,7,8,9-Tetrahydro-10-methyl-N-(2-propynyl)pyrido[1,2-a]indol-9-amine Hydrochloride] has an ED50 of 22 mg/kg. With `CCC1(CC)CCn2c(c(C)c3ccccc32)C1N1CCCC1` (stereo not drawn) [Example 6, 8,8-diethyl-6,7,8,9-tetrahydro-10-methyl-9-(1-pyrolidinyl)pyrido[1,2-a]indole Hydrochloride] the ED50 was 20 mg/kg. `Br.Cc1c2n(c3ccccc13)CCC(C)(C)C2N(C)C` (stereo not drawn) [Example 4, 6,7,8,9-Tetrahydro-N,N,8,8,10-pentamethylpyrido[1,2-a]indol-9-amine Hydrobromide] gave an ED50 of 5 mg/kg. Work on `Cc1c2n(c3ccc(Br)cc13)CCCC2N1CCCCC1.Cl` (stereo not drawn) [Example 19, 2-Bromo-6,7,8,9-tetrahydro-10-methyl-9-(1-piperidinyl)-pyrido[1,2-a]indole Hydrochloride] yielded an ED50 of 110 mg/kg. Work on `Cc1c2n(c3ccccc13)CCCC2N1CCCCC1.Cl` (stereo not drawn) [Example 8, 6,7,8,9-Tetrahydro-10-methyl-9-(1-piperidinyl)-pyrido[1,2-a]indole Hydrochloride] yielded an ED50 of 55.7 mg/kg. `Br.Cc1c2n(c3ccc(O)cc13)CCC(C)(C)C2N1CCCC1` (stereo not drawn) [Example 33, 6,7,8,9-Tetrahydro-2-hydroxy-8,8,10-trimethyl-9-(1-pyrrolidinyl)-pyrido[1,2-a]indole Hydrobromide] showed an ED50 of 20 mg/kg. `Cc1c2n(c3ccccc13)CCC(C)(C)C2N(C)C1CCCCC1` (stereo not drawn) [Example 32, N-Cyclohexyl-6,7,8,9-tetrahydro-N,8,8,10-tetramethylpyrido[1,2-a]indol-9-amine] showed an ED50 of 8.8 mg/kg. With `Cc1c2n(c3ccccc13)CCCC2N1CCOCC1.Cl` (stereo not drawn) [Example 9, 6,7,8,9-Tetrahydro-10-methyl-9-(4-morpholinyl)-pyrido[1,2-a]indole Hydrochloride] the ED50 was 32.4 mg/kg. In the case of `Cc1c2n(c3ccccc13)CCC(C)(C)C2N1CCCC1` (stereo not drawn) [Example 1, 6,7,8,9-Tetrahydro-8,8,10-trimethyl-9-(1-pyrrolidinyl)-pyrido[1,2,a]indole Hydrochloride], the ED50 was 11.2 mg/kg. `CNC1CCCn2c1c(C)c1ccc(OC)cc12.Cl` (stereo not drawn) [Example 27, 6,7,8,9-Tetrahydro-3-methoxy-N,10-dimethylpyrido[1,2-a]indol-9-amine Hydrochloride] gave an ED50 of 15.1 mg/kg. With `Cc1c2n(c3ccc(Br)cc13)CCC(C)(C)C2N1CCCC1.Cl` (stereo not drawn) [Example 17, 2-Bromo-6,7,8,9-tetrahydro-8,8,10-trimethyl-9-(1-pyrrolidinyl)pyrido[1,2-a]indole Hydrochloride] the ED50 was 50 mg/kg. With `Cc1c2n(c3ccccc13)CCC(C)(C)C2N.Cl` (stereo not drawn) [Example 29, 6,7,8,9-Tetrahydro-8,8,10-trimethylpyrido[1,2-a]indol-9-amine Hydrochloride] the ED50 was 17.2 mg/kg. In the case of `Cc1c2n(c3ccccc13)CCCC2N1CCCC1.Cl` (stereo not drawn) [Example 2, 6,7,8,9-Tetrahydro-10-methyl-9-(1-pyrrolidinyl)pyrido[1,2-a]indole Hydrochloride], the ED50 was 83.3 mg/kg.

Test: Passive avoidance test: prevention of scopolamine-induced memory impairment in rats
Format: in vivo, male Sprague-Dawley rats
Settings: 30 mg/kg test compound, oral, 75 or 90 min before training; scopolamine 2 mg/kg s.c.; retention test 24 h later, 180 seconds access
Description: In the test, a rat must remember to avoid a darkened enclosure where it had been shocked the previous day.
This passive avoidance procedure uses a test chamber divided into two compartments: a lighted compartment and a dark compartment.
The two compartments are separated by a solenoid-operated slide door. An inescapable foot shock (750 μA for two seconds) can be presented to the grid floor of the dark compartment.
On the training day, male Sprague-Dawley rats (eight animals are tested per group) are placed in the lighted compartment and given access to the adjacent dark compartment. Upon entering the dark compartment, the rat is given an inescapable foot shock. Twenty-four hours later retention (memory) is tested: the rat is placed in the lighted compartment and allowed access to the dark compartment for 180 seconds.
Compounds to be tested are dissolved in 0.9% saline or suspended in Tween 80 (0.2% v/v in saline) or methyl cellulose (0.5% w/v in distilled water). […] Appropriate vehicle and control groups are included with each experiment. Each animal is given a single training trial.
With `Cc1c2n(c3ccccc13)CCC(C)(C)C2N1CCCC1` (stereo not drawn) [Example 1, 6,7,8,9-Tetrahydro-8,8,10-trimethyl-9-(1-pyrrolidinyl)-pyrido[1,2,a]indole Hydrochloride] the “mean entry latency on retention day” value was 152 s. In the case of `Cc1c2n(c3ccccc13)CCCC2N1CCCC1.Cl` (stereo not drawn) [Example 2, 6,7,8,9-Tetrahydro-10-methyl-9-(1-pyrrolidinyl)pyrido[1,2-a]indole Hydrochloride], the “mean entry latency on retention day” value was 135 s.

Test: not given
Settings: scopolamine alone; passive avoidance; cited from earlier work
In the case of `CN1[C@@H]2C[C@@H](OC(=O)[C@H](CO)c3ccccc3)C[C@H]1[C@@H]1O[C@@H]12` [scopolamine], the “memory effect of scopolamine (in words)” value is given as “impairs the rat's ability to remember to avoid the darkened enclosure”.
